The text below walks through data of the kinase profiling compilation of Christmann-Franck et al. (2016).

One assay addresses PTK6 (human) (UniProt Q13882). Put plainly: radiometric filter-binding kinase assay, Kinase HotSpot. Particulars: compound 0.5 µM; ATP 10 µM.
Consider `O=C1NC(=O)/C(=C\c2ccc3nccnc3c2)S1`, for which the residual activity stood at 95.1%.

For the compound `CC(C)c1nn(-c2c(Cl)cccc2Cl)c2nc(Cc3ccc(OCCO)cc3)nc(O)c12`, the residual activity was 87.1%.

On to `CN([C@@H](Cc1ccc(OS(=O)(=O)c2cccc3cnccc23)cc1)C(=O)N1CCN(c2ccccc2)CC1)S(=O)(=O)c1cccc2cnccc12`, for which the residual activity amounted to 89.7%.

Another assay has as its target NEK11 (human) (UniProt Q8NG66). Described as above. The following applies: compound 0.5 µM; ATP 10 µM.
Take `O=C1NC(=O)/C(=C\c2ccc3nccnc3c2)S1`: the residual activity stood at 111%.

With `CC(C)c1nn(-c2c(Cl)cccc2Cl)c2nc(Cc3ccc(OCCO)cc3)nc(O)c12`, the residual activity stood at 109%.

Consider `CN([C@@H](Cc1ccc(OS(=O)(=O)c2cccc3cnccc23)cc1)C(=O)N1CCN(c2ccccc2)CC1)S(=O)(=O)c1cccc2cnccc12`, for which the residual activity worked out at 103%.

The target of the next assay is TXK (human) (UniProt P42681). The description is as above. Particulars: compound 0.5 µM; ATP 10 µM.
Chain of TXK (human) (P42681 whole entry, looked up): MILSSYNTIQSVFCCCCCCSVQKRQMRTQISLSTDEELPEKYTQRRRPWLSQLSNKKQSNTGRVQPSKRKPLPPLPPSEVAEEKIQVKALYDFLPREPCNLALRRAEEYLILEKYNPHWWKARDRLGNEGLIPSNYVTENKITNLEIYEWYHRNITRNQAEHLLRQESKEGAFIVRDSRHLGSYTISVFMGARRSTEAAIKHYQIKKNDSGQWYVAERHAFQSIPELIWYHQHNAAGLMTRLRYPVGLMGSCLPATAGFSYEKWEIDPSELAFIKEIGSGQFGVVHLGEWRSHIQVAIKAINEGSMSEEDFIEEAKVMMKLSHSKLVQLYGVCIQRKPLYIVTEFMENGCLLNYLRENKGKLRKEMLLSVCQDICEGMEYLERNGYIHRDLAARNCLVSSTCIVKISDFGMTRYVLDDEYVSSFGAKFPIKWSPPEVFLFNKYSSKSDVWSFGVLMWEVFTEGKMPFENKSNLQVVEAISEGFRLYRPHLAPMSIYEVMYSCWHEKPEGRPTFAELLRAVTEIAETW
On to `O=C1NC(=O)/C(=C\c2ccc3nccnc3c2)S1`, for which the residual activity was determined as 96.8%.

For the compound `CC(C)c1nn(-c2c(Cl)cccc2Cl)c2nc(Cc3ccc(OCCO)cc3)nc(O)c12`, the residual activity amounted to 101%.

Regarding `CN([C@@H](Cc1ccc(OS(=O)(=O)c2cccc3cnccc23)cc1)C(=O)N1CCN(c2ccccc2)CC1)S(=O)(=O)c1cccc2cnccc12`, the residual activity came to 94.3%.

The next assay addresses MET (human) (UniProt P08581). Described as above. Particulars: compound 0.5 µM; ATP 10 µM.
Consider `O=C1NC(=O)/C(=C\c2ccc3nccnc3c2)S1`, for which the residual activity was determined as 91.2%.

For `CC(C)c1nn(-c2c(Cl)cccc2Cl)c2nc(Cc3ccc(OCCO)cc3)nc(O)c12`, the residual activity stood at 91%.

Take `CN([C@@H](Cc1ccc(OS(=O)(=O)c2cccc3cnccc23)cc1)C(=O)N1CCN(c2ccccc2)CC1)S(=O)(=O)c1cccc2cnccc12`: the residual activity stood at 114%.

The target in the next assay is CDK7 CCNH MNAT1 (human) (UniProt P50613+P51948+P51946). The assay is described as above. Particulars: compound 0.5 µM; ATP 10 µM.
Chain of CDK7 CCNH MNAT1 (human) (P50613 whole entry, looked up): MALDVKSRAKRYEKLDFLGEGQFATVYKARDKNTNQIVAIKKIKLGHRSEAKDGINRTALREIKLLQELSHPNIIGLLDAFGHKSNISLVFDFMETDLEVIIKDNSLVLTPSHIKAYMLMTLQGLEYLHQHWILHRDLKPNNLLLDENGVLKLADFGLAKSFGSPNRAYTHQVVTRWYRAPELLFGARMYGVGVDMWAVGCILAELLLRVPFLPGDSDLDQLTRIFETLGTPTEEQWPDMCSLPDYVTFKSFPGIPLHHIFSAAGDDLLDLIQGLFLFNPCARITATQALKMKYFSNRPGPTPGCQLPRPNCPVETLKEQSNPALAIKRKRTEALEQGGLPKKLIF
Chain of CDK7 CCNH MNAT1 (human) (P51946 whole entry, looked up): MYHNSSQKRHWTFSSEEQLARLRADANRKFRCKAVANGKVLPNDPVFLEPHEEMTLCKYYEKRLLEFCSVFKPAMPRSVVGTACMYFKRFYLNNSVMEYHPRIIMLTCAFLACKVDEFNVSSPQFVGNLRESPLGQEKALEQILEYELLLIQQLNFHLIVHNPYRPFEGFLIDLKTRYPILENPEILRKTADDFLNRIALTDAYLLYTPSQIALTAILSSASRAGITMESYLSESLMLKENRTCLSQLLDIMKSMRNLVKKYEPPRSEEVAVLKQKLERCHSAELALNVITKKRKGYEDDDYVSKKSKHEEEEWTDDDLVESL
Chain of CDK7 CCNH MNAT1 (human) (P51948 whole entry, looked up): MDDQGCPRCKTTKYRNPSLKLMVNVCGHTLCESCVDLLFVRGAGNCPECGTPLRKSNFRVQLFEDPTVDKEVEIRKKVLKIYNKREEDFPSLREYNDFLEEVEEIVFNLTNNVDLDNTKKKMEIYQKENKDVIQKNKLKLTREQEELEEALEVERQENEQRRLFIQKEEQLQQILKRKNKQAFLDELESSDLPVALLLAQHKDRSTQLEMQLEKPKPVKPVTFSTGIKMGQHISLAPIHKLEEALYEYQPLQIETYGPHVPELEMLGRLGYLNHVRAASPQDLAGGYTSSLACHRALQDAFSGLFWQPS
For the compound `O=C1NC(=O)/C(=C\c2ccc3nccnc3c2)S1`, the residual activity was 85.2%.

For the compound `CC(C)c1nn(-c2c(Cl)cccc2Cl)c2nc(Cc3ccc(OCCO)cc3)nc(O)c12`, the residual activity was 60.3%.

Consider `CN([C@@H](Cc1ccc(OS(=O)(=O)c2cccc3cnccc23)cc1)C(=O)N1CCN(c2ccccc2)CC1)S(=O)(=O)c1cccc2cnccc12`, for which the residual activity is 99.4%.

The next assay deals with MAPK8 (human) (UniProt P45983). The assay is described as above. The following applies: compound 0.5 µM; ATP 10 µM.
As to `O=C1NC(=O)/C(=C\c2ccc3nccnc3c2)S1`, the residual activity was found to be 91.5%.

With `CC(C)c1nn(-c2c(Cl)cccc2Cl)c2nc(Cc3ccc(OCCO)cc3)nc(O)c12`, the residual activity worked out at 95.4%.

As to `CN([C@@H](Cc1ccc(OS(=O)(=O)c2cccc3cnccc23)cc1)C(=O)N1CCN(c2ccccc2)CC1)S(=O)(=O)c1cccc2cnccc12`, the residual activity is 94.6%.

For the next assay, the target named is PRKX (human) (UniProt P51817). Described as above. The following applies: compound 0.5 µM; ATP 10 µM.
Chain of PRKX (human) (P51817 whole entry, looked up): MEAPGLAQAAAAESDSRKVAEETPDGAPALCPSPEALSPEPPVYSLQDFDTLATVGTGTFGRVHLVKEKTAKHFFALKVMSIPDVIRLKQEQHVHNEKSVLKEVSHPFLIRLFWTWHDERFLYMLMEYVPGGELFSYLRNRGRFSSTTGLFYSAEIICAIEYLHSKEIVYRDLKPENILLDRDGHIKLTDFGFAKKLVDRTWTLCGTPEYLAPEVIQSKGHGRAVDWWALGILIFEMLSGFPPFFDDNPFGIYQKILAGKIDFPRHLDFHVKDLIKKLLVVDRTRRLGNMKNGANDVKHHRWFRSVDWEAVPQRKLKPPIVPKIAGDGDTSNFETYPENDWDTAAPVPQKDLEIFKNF
For `O=C1NC(=O)/C(=C\c2ccc3nccnc3c2)S1`, the residual activity worked out at 89.2%.

Regarding `CC(C)c1nn(-c2c(Cl)cccc2Cl)c2nc(Cc3ccc(OCCO)cc3)nc(O)c12`, the residual activity is 96.3%.

On to `CN([C@@H](Cc1ccc(OS(=O)(=O)c2cccc3cnccc23)cc1)C(=O)N1CCN(c2ccccc2)CC1)S(=O)(=O)c1cccc2cnccc12`, for which the residual activity came out at 109%.

In another assay the target is PIM1 (human) (UniProt P11309). Described as above. The following applies: compound 0.5 µM; ATP 10 µM.
Chain of PIM1 (human) (P11309 whole entry, looked up): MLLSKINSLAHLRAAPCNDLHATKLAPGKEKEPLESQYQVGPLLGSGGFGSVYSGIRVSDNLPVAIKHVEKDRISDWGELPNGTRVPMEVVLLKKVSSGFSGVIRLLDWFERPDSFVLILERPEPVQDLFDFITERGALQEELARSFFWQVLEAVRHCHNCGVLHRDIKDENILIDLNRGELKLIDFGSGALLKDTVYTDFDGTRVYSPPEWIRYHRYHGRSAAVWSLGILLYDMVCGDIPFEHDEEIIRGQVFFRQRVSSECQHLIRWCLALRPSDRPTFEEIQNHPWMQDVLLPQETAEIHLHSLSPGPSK
Take `O=C1NC(=O)/C(=C\c2ccc3nccnc3c2)S1`: the residual activity worked out at 61.7%.

With `CC(C)c1nn(-c2c(Cl)cccc2Cl)c2nc(Cc3ccc(OCCO)cc3)nc(O)c12`, the residual activity is 99%.

Consider `CN([C@@H](Cc1ccc(OS(=O)(=O)c2cccc3cnccc23)cc1)C(=O)N1CCN(c2ccccc2)CC1)S(=O)(=O)c1cccc2cnccc12`, for which the residual activity amounted to 106%.

Another assay addresses NUAK1 (human) (UniProt O60285). The assay is described as above. The following applies: compound 0.5 µM; ATP 10 µM.
`O=C1NC(=O)/C(=C\c2ccc3nccnc3c2)S1`: the residual activity worked out at 92.8%.

In the case of `CC(C)c1nn(-c2c(Cl)cccc2Cl)c2nc(Cc3ccc(OCCO)cc3)nc(O)c12`, the residual activity was determined as 96.9%.

Turning to `CN([C@@H](Cc1ccc(OS(=O)(=O)c2cccc3cnccc23)cc1)C(=O)N1CCN(c2ccccc2)CC1)S(=O)(=O)c1cccc2cnccc12`, the residual activity came out at 97.5%.

For the next assay, the target named is STK10 (human) (UniProt O94804). Described as above. Particulars: compound 0.5 µM; ATP 10 µM.
With `O=C1NC(=O)/C(=C\c2ccc3nccnc3c2)S1`, the residual activity was 90.5%.

Turning to `CC(C)c1nn(-c2c(Cl)cccc2Cl)c2nc(Cc3ccc(OCCO)cc3)nc(O)c12`, the residual activity stood at 96.6%.

For `CN([C@@H](Cc1ccc(OS(=O)(=O)c2cccc3cnccc23)cc1)C(=O)N1CCN(c2ccccc2)CC1)S(=O)(=O)c1cccc2cnccc12`, the residual activity stood at 96.3%.

A further assay deals with MAPKAPK2 (human) (UniProt P49137). The assay is described as above. The following applies: compound 0.5 µM; ATP 10 µM.
In the case of `O=C1NC(=O)/C(=C\c2ccc3nccnc3c2)S1`, the residual activity is 97.7%.

Turning to `CC(C)c1nn(-c2c(Cl)cccc2Cl)c2nc(Cc3ccc(OCCO)cc3)nc(O)c12`, the residual activity was 95.4%.

`CN([C@@H](Cc1ccc(OS(=O)(=O)c2cccc3cnccc23)cc1)C(=O)N1CCN(c2ccccc2)CC1)S(=O)(=O)c1cccc2cnccc12`: the residual activity stood at 103%.

A further assay deals with CSK (human) (UniProt P41240). The assay is described as above. The following applies: compound 0.5 µM; ATP 10 µM.
Chain of CSK (human) (P41240 whole entry, looked up): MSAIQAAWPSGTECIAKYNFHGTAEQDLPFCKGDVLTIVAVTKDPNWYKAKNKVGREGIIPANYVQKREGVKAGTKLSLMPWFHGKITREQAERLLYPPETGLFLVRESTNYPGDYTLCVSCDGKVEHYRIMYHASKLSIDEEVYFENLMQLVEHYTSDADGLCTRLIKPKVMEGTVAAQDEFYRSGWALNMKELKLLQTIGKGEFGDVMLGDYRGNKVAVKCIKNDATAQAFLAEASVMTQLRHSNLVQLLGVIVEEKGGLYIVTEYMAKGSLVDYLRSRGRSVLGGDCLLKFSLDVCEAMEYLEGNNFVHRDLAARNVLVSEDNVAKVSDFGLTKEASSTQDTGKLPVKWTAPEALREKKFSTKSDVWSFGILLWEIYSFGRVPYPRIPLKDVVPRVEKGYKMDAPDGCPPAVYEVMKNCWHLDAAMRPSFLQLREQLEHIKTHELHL
Turning to `O=C1NC(=O)/C(=C\c2ccc3nccnc3c2)S1`, the residual activity was found to be 86.3%.

In the case of `CC(C)c1nn(-c2c(Cl)cccc2Cl)c2nc(Cc3ccc(OCCO)cc3)nc(O)c12`, the residual activity was 106%.

Take `CN([C@@H](Cc1ccc(OS(=O)(=O)c2cccc3cnccc23)cc1)C(=O)N1CCN(c2ccccc2)CC1)S(=O)(=O)c1cccc2cnccc12`: the residual activity was determined as 96.2%.

A further assay addresses LIMK1 (human) (UniProt P53667). Described as above. The following applies: compound 0.5 µM; ATP 10 µM.
As to `O=C1NC(=O)/C(=C\c2ccc3nccnc3c2)S1`, the residual activity is 87.4%.

As for `CC(C)c1nn(-c2c(Cl)cccc2Cl)c2nc(Cc3ccc(OCCO)cc3)nc(O)c12`, the residual activity stood at 107%.

In the case of `CN([C@@H](Cc1ccc(OS(=O)(=O)c2cccc3cnccc23)cc1)C(=O)N1CCN(c2ccccc2)CC1)S(=O)(=O)c1cccc2cnccc12`, the residual activity was found to be 104%.

For a further assay, the target named is MST4 (human) (UniProt Q9P289). The description is as above. Particulars: compound 0.5 µM; ATP 10 µM.
On to `O=C1NC(=O)/C(=C\c2ccc3nccnc3c2)S1`, for which the residual activity turned out to be 91%.

For `CC(C)c1nn(-c2c(Cl)cccc2Cl)c2nc(Cc3ccc(OCCO)cc3)nc(O)c12`, the residual activity stood at 46.8%.

As for `CN([C@@H](Cc1ccc(OS(=O)(=O)c2cccc3cnccc23)cc1)C(=O)N1CCN(c2ccccc2)CC1)S(=O)(=O)c1cccc2cnccc12`, the residual activity was 109%.

The target in the next assay is PRKCZ (human) (UniProt Q05513). The assay is described as above. The following applies: compound 0.5 µM; ATP 10 µM.
Consider `O=C1NC(=O)/C(=C\c2ccc3nccnc3c2)S1`, for which the residual activity worked out at 103%.

Consider `CC(C)c1nn(-c2c(Cl)cccc2Cl)c2nc(Cc3ccc(OCCO)cc3)nc(O)c12`, for which the residual activity stood at 96.9%.

In the case of `CN([C@@H](Cc1ccc(OS(=O)(=O)c2cccc3cnccc23)cc1)C(=O)N1CCN(c2ccccc2)CC1)S(=O)(=O)c1cccc2cnccc12`, the residual activity stood at 101%.

Another assay concerns the target NEK4 (human) (UniProt P51957). The description is as above. Particulars: compound 0.5 µM; ATP 10 µM.
As for `O=C1NC(=O)/C(=C\c2ccc3nccnc3c2)S1`, the residual activity stood at 93.1%.

For the compound `CC(C)c1nn(-c2c(Cl)cccc2Cl)c2nc(Cc3ccc(OCCO)cc3)nc(O)c12`, the residual activity came out at 96.3%.

As to `CN([C@@H](Cc1ccc(OS(=O)(=O)c2cccc3cnccc23)cc1)C(=O)N1CCN(c2ccccc2)CC1)S(=O)(=O)c1cccc2cnccc12`, the residual activity stood at 99.5%.

The target of the next assay is PAK7 (human) (UniProt Q9P286). Described as above. The following applies: compound 0.5 µM; ATP 10 µM.
Turning to `O=C1NC(=O)/C(=C\c2ccc3nccnc3c2)S1`, the residual activity worked out at 97.4%.

Turning to `CC(C)c1nn(-c2c(Cl)cccc2Cl)c2nc(Cc3ccc(OCCO)cc3)nc(O)c12`, the residual activity worked out at 76.4%.

With `CN([C@@H](Cc1ccc(OS(=O)(=O)c2cccc3cnccc23)cc1)C(=O)N1CCN(c2ccccc2)CC1)S(=O)(=O)c1cccc2cnccc12`, the residual activity turned out to be 103%.

The target of another assay is CSF1R (human) (UniProt P07333). The assay is described as above. Particulars: compound 0.5 µM; ATP 10 µM.
With `O=C1NC(=O)/C(=C\c2ccc3nccnc3c2)S1`, the residual activity stood at 110%.

Regarding `CC(C)c1nn(-c2c(Cl)cccc2Cl)c2nc(Cc3ccc(OCCO)cc3)nc(O)c12`, the residual activity stood at 94.6%.

Consider `CN([C@@H](Cc1ccc(OS(=O)(=O)c2cccc3cnccc23)cc1)C(=O)N1CCN(c2ccccc2)CC1)S(=O)(=O)c1cccc2cnccc12`, for which the residual activity amounted to 95.1%.

The target in the next assay is ROCK1 (human) (UniProt Q13464). The assay is described as above. Particulars: compound 0.5 µM; ATP 10 µM.
Chain of ROCK1 (human) (Q13464 whole entry, looked up): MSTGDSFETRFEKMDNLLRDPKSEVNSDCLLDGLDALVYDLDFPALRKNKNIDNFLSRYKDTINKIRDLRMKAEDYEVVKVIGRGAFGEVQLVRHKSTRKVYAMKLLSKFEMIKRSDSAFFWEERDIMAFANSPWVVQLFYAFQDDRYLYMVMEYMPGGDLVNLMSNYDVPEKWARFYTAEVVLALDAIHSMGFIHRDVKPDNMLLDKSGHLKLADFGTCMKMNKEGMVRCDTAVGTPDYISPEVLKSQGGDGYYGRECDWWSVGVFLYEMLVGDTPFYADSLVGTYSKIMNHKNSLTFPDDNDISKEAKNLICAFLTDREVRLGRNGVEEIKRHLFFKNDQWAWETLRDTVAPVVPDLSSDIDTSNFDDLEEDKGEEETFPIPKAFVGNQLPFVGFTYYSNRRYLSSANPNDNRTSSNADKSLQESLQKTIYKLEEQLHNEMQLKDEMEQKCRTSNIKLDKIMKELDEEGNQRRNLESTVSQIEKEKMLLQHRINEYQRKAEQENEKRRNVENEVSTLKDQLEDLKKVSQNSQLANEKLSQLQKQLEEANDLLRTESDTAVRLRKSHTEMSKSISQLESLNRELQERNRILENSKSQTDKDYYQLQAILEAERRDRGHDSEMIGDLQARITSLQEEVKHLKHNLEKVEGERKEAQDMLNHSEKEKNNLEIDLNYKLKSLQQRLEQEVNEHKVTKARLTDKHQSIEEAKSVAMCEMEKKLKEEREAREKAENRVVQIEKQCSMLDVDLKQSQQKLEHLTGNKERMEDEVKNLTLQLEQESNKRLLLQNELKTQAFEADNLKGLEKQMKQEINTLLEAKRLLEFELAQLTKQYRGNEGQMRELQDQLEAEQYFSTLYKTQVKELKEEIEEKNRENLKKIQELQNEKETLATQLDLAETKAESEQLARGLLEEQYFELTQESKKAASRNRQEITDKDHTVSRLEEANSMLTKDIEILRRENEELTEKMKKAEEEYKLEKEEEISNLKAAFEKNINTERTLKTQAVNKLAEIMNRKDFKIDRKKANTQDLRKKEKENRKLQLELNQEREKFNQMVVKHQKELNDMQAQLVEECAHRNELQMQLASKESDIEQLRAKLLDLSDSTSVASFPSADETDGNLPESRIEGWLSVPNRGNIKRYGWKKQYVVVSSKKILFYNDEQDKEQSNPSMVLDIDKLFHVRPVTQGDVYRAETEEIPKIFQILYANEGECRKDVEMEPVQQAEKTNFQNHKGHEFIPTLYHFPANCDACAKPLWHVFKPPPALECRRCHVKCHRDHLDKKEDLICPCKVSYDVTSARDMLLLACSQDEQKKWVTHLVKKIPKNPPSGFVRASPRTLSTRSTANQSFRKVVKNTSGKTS
Turning to `O=C1NC(=O)/C(=C\c2ccc3nccnc3c2)S1`, the residual activity was found to be 94%.

Take `CC(C)c1nn(-c2c(Cl)cccc2Cl)c2nc(Cc3ccc(OCCO)cc3)nc(O)c12`: the residual activity came to 101%.

For the compound `CN([C@@H](Cc1ccc(OS(=O)(=O)c2cccc3cnccc23)cc1)C(=O)N1CCN(c2ccccc2)CC1)S(=O)(=O)c1cccc2cnccc12`, the residual activity is 97.9%.

A further assay deals with SRPK2 (human) (UniProt P78362). Described as above. The following applies: compound 0.5 µM; ATP 10 µM.
Chain of SRPK2 (human) (P78362 whole entry, looked up): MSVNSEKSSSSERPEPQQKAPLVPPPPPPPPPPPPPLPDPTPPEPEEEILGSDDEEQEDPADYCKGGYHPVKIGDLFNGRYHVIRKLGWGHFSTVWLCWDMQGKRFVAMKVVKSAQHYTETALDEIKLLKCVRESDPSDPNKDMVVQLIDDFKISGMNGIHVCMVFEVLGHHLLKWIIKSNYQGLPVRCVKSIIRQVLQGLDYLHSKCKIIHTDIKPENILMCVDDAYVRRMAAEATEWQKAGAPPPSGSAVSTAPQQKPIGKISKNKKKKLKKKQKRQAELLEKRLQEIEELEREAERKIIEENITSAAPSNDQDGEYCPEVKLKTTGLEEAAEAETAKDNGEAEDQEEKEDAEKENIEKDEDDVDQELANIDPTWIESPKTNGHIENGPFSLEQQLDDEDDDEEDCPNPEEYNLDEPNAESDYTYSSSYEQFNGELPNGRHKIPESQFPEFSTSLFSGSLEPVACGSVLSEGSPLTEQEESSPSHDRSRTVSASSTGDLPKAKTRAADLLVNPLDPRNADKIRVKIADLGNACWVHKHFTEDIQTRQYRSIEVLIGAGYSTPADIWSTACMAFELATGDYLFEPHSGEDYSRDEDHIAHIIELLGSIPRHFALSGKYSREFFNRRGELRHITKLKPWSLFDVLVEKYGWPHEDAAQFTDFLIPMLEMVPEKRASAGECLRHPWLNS
`O=C1NC(=O)/C(=C\c2ccc3nccnc3c2)S1`: the residual activity amounted to 98.2%.

Take `CC(C)c1nn(-c2c(Cl)cccc2Cl)c2nc(Cc3ccc(OCCO)cc3)nc(O)c12`: the residual activity was 89.2%.

Consider `CN([C@@H](Cc1ccc(OS(=O)(=O)c2cccc3cnccc23)cc1)C(=O)N1CCN(c2ccccc2)CC1)S(=O)(=O)c1cccc2cnccc12`, for which the residual activity came out at 99.4%.

The target in the next assay is EPHB2 (human) (UniProt P29323). Described as above. The following applies: compound 0.5 µM; ATP 10 µM.
In the case of `O=C1NC(=O)/C(=C\c2ccc3nccnc3c2)S1`, the residual activity is 94.7%.

For the compound `CC(C)c1nn(-c2c(Cl)cccc2Cl)c2nc(Cc3ccc(OCCO)cc3)nc(O)c12`, the residual activity was determined as 92.5%.

For `CN([C@@H](Cc1ccc(OS(=O)(=O)c2cccc3cnccc23)cc1)C(=O)N1CCN(c2ccccc2)CC1)S(=O)(=O)c1cccc2cnccc12`, the residual activity stood at 103%.
